What was measured:
[1] = test system: C. glabrata; conditions: C. glabrata (16); cited from earlier work
[2] = test system: C. albicans; conditions: C. albicans (73); cited from earlier work
[3] = test system: C. guillermondii; conditions: C. guillermondii (5); cited from earlier work
[4] = test system: C. tropicalis; conditions: C. tropicalis (21); cited from earlier work
[5] = test system: C. krusei; conditions: C. krusei (13); cited from earlier work
[6] = test system: C. parapsilosis; conditions: C. parapsilosis (22); cited from earlier work
[7] = test system: reconstituted vaginal epithelial cells; assay: In vitro permeation test through reconstituted vaginal epithelium, Franz cell; type: in vitro ADME; conditions: reconstituted human vaginal epithelium, phosphate buffer pH 7.4, 32° C.
Method: The in vitro dissolution and transdermal permeation tests of sertaconazole nitrate from the cream formulations of Example 1 were evaluated in comparison with a conventional cream formulation of 2% sertaconazole nitrate.
Both tests were carried out with Franz cell-type diffusion systems, with a diffusional area of 2.54 cm^2. 1 ml of cream was placed in the donor compartment and 11 ml of a suitable receptor medium were placed in the receptor compartment. For the dissolution test, a 0.45-μm Millipore membrane of nylon esters was used, and the receptor medium was made up of a mixture of ethanol-water (1:1). Vaginal epithelium was used as permeation membrane and phosphate buffer solution at pH 7.4 was used as the receptor medium.
The 4-cm^2 membranes used in the permeation test were formed by reconstituted vaginal epithelial cells (5-day culture) from transformed cells of human vaginal epithelium on polycarbonate support. These cells were obtained from cell lines of vulvar epidermoid carcinomas. The test temperature was 32° C. for both cases.

[8] = test system: C. albicans; conditions: against C. albicans; cited from earlier work

Row | SMILES | minimum inhibitory concentration (MIC) [1] | minimum inhibitory concentration (MIC) [2] | minimum inhibitory concentration (MIC) [3] | minimum inhibitory concentration (MIC) [4] | minimum inhibitory concentration (MIC) [5] | minimum inhibitory concentration (MIC) [6] | absorption (permeation) through the vaginal mucosa [7] | fungicide activity compared with imidazole antifungal drugs [8]
1 | c1ccc(-c2ccc(C(c3ccccc3)n3ccnc3)cc2)cc1 (centres unmarked) [Bifonazole, bifonazole] | 4.09 | 3.6 | 3.87 | 9.51 | 2.20 | 3.76 |  | 
2 | Clc1ccc(COC(Cn2ccnc2)c2ccc(Cl)cc2Cl)cc1 (centres unmarked) [Econazole, econazole] | 2.39 | 2.24 | 1.11 | 3.14 | 0.91 | 0.75 |  | 
3 | Clc1ccc(C(Cn2ccnc2)OCc2csc3c(Cl)cccc23)c(Cl)c1 (centres unmarked) [Sertaconazole, sertaconazole] | 0.78 | 1.02 | 0.51 | 1.67 | 0.38 | 0.31 | less than 0.1 % of the dose | superior to most imidazole antifungal drugs
